Measurements: patent US6121323A, “Bishydroxyureas” (3M Innovative Properties Company, priority 1997, dated 2000)

Columns and labels:
[1] = test system: Leukotriene C4 production in mouse peritoneal macrophages; assay: In vitro mouse peritoneal macrophage Leukotriene C4 inhibition; type: cell-based; conditions: zymosan stimulated, read-out: Percent Inhibition
Description: IN VITRO MOUSE PERITONEAL MACROPHAGE LEUKOTRIENE C4 INHIBITION
The test described below measures the ability of compounds to inhibit the production of Leukotriene C4 in mouse peritoneal macrophages.
Mice (female, CD-1, weighing 25 g) are euthanized by exposure to carbon dioxide. The pertoneal cavity is exposed by peeling back the abdominal skin. A 5 mL portion of media (M199 containing 1% fetal bovine serum, 100 units/mL of penicillin, 100 μg/mL streptomycin, 20 units/mL of heparin and no glutamine) is injected into the exposed peritoneal cavity of each mouse. The lavage fluid is removed and pooled to yield proximately 1×10^6 macrophages/mL. A 2 mL portion of lavage fluid is added to each well of a 24 well sterile multidish and the marcophages are allowed to adhere to the plate for 2 hours at 37° C. in a 5% carbon dioxide atmosphere. The media is removed and each well is washed with 2 mL of phosphate buffered saline (PBS). A 1 mL portion of media, without heparin, but containing 5 μCi/mL of 3H-myoinositol is added to each well and the plates are incubated overnight at 37° C. in a 5% carbon dioxide atmosphere. The media is removed and the cells are washed twice with 2 mL portions of PBS. A 1 mL portion of Puck's saline formulation A containing 1 mM calcium chloride, 1 mM magnesium chloride and 10 mM lithium chloride is added to each well. (The Puck's formulation is made first as a 10× solution which contains 4 g of potassium chloride, 80 g of sodium chloride and 10 g of glucose per liter. The Puck's saline formulation A is made using 10 mL of the 10× Puck's formulation, 0.47 mL of 7.5% sodium bicarbonate and 2 mL of 1M N-2-hydroxyethylpiperazine-N'-2-ethanesulfonic acid per 100 mL.)
Compounds are dissolved in dimethyl sulfoxide. Compounds are tested at concentrations of 10, 1 and 0.1 μM. Each concentration is tested in duplicate.
A 1 μL portion of compound solution or vehicle (DMSO) is added to each well and the plates are incubated for 15 minutes at 37° C. in a 5% carbon dioxide atmosphere. Zymosan is then added to provide a final concentration of 50 μg/mL in each well and the plate is incubated for 1 to 2 hours at 37° C. in a 5% carbon dioxide atmosphere.
Following incubation 200 μL portions of media are transferred to 12×75 mm tubes. The tubes are either assayed immediately or stored at -20° C. until they can be assayed.
The media is assayed for the presence of Leukotriene C4 by radioimmunoassay which is performed according to the manufacturer's instructions (Advanced Magnetics; Cambridge, Mass.). Inhibition of LTC4 production is calculated as the ratio of the amount of LTC4 formed in the presence (LTC4 +cpd) and absence (LTC4 no cpd)of compound according to the equation below. [formula] IC50 values (concentration of compound producing a 50% inhibition of LTC4 production) are calculated by linear regression analysis of percentage inhibition versus log compound concentration plots.

[2] = test system: Leukotriene B4 production in rat blood; assay: Rat ex vivo Leukotriene B4 inhibition; type: in vivo; conditions: 50 mg/Kg oral, 2 hours post dose, ex vivo A23187 challenge
Description: RAT EX VIVO LEUKOTRIENE B4 INHIBITION
The test method described below measures the ability of a compound when administrated orally to rats to inhibit the production of Leukotriene B4 in their blood which is drawn and challenged.
Rats (CD, male, non-fasted, 250 g) are lightly anesthetized with carbon dioxide and an approximately 0.75 mL sample of whole blood is obtained via cardiac puncture. The sample is dispensed into 12×75 mm polypropylene tubes containing 8-10 μL of 10,000 units/mL heparin, mixed and then maintained on ice. The rats are allowed to recover approximately one hour then dosed orally with compound dissolved in PEG 400 at a 5 mL/Kg volume. Five (5) rats are utilized per group. Two (2) hours post dose the rats are again anesthetized with carbon dioxide and the blood sampled again via cardiac puncture.
Duplicate 200 μL portions of blood are added to 1.0 mL polypropylene tubes. A 10 μL portion of 1 mM A23 187 Calcium Ionophore in dimethyl sulfoxide/Tris buffer is added to each tube. The tubes are gently vortexed then incubated in a 37° C. water bath for 30 minutes. The tubes are then centrifuged at 4000 rpm for 10 minutes. 50 μL portions of plasma are transferred to 1.0 mL tubes containing 200 μL of methanol. The tubes are vortexed then placed in the freezer overnight.
The tubes are removed from the freezer then centrifuged at 4000 rpm for 10 minutes. 20 μL portions of the methanol/plasma supernatant and 10 μl methanol dilutions of LTB4 standard are transferred to 96 well v-bottom microtiter plates. The plates are vacuum dried at 40° C. A 40 μL portion of LTB4 radioimmunoassay buffer is added to each well. The plate is bath sonicated for 5 minutes then assayed according to the manufacturer's instructions (Advanced Magnetics; Cambridge, Mass.). Percent inhibition values are obtained by comparing the level of LTB4 in the post-dose samples to the level in the pre-dose samples according to the equation below. [formula]

[3] = target: T1, 5-lipoxygenase (Homo sapiens, UniProt P09917); assay: 5-Lipoxygenase inhibition in human leukocytes (LTC4 by radioimmunoassay); type: cell-based; conditions: A23187 stimulated, LTC4 readout, read-out: IC50 (concentration producing 50% leukotriene biosynthesis inhibition)
T1 construct: endogenous in cells; host or cells: leukocytes from whole human blood (EDTA, dextran sedimentation, hypotonic lysis)
T1 sequence (P09917 1-674): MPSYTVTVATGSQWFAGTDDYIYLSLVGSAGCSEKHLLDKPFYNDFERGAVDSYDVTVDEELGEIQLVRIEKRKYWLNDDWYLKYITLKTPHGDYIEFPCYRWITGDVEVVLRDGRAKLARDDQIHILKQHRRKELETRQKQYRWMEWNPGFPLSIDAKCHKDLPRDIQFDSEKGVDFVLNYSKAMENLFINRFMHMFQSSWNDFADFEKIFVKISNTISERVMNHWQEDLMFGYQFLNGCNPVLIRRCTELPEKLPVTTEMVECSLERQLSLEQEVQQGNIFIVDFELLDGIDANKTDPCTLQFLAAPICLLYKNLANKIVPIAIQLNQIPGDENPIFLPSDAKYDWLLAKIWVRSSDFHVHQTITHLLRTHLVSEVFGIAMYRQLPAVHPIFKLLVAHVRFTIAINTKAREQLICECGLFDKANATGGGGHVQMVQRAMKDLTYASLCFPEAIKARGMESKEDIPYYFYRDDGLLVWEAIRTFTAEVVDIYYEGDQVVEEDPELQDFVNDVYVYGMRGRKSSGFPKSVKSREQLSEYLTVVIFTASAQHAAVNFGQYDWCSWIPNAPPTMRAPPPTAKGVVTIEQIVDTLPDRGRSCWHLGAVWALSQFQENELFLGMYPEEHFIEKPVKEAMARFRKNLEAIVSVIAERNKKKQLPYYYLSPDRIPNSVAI
Description: 5-LIPOXYGENASE INHIBITION IN HUMAN LEUKOCYTES
The test method described below measures the ability of compounds of the invention to inhibit 5-lipoxygenase activity in human leukocytes.
Whole human blood is collected by venipuncture into EDTA (1.4 mL of 0.25M per 60 mL of whole blood). The red blood cells are sedimented with a 6% dextran/0.9% sodium chloride solution at a ratio of 25 mL whole blood to 15 mL dextran solution. The blood/dextran combination is mixed by inversion and the red blood cells are allowed to settle out for 45 minutes at ambient temperature. The plasma/dextran supernatant is removed then centrifuged at ambient temperature at 3000 rpm for 10 minutes. The plasma/dextran supernatant is removed and the cells are resuspended in 10 mL of the plasma/dextran solution. The cell suspension is combined with 20 mL of water, mixed for 1.5 minutes then immediately combined with 10 mL of 3.6% sodium chloride, mixed and centrifuged at ambient temperature at 3000 rpm for 10 minutes. The pellet is washed with 40 mL of Tris buffer (5.55 mM dextrose, 15.36 mM Tris base, 136.9 mM sodium chloride with pH 7.3-7.4) then centrifuged at 3000 rpm for 10 minutes. The pellet is then resuspended into Tris buffer containing 1 mM calcium chloride to provide approximately 1.0×10^7 cells/mL.
Compounds are dissolved in dimethyl sulfoxide. Compounds are tested at concentrations of 100, 33, 11, 3.7, 1.2 and 0.41 μM. Each concentration is tested in duplicate.
A 15 μL portion of Tris buffer containing 1 mM calcium chloride is added to each well of a 96 well microtiter plate. A 1 μL portion of drug solution or vehicle (dimethyl sulfoxide) is added to each well followed by the addition of a 75 μL portion of the cell suspension. The plates are gently mixed then allowed to stand at ambient temperature for 10 minutes. A 10 μL portion of 30 μM A23187 Calcium Ionophore (prepared by dissolving the ionophore in DMSO and then diluting 1:80 into the Tris buffer) is added to each well except the wells that contain the blanks. The blank wells measure the level of LTC4 production in the absence of A23187. The plates are gently mixed then incubated at 37° C. for 10 minutes.
Following incubation the plates are centrifuged at 2000 rpm for 1.5 minutes and the supernatant is removed as quickly as possible to stop the reaction. The supernatants are frozen at -20° C. until they are assayed.
The supernatants are assayed for the presence of Leukotriene C4 by radioimmunoassay which is performed according to the manufacturer's instructions (Advanced Magnetics; Cambridge, Mass.). Inhibition of leukotriene biosynthesis is calculated as the ratio of the amount of LTC4 formed in the presence (LTC4 +cpd) and absence (LTC4 no cpd) of compound according to the following equation. [formula] IC50 values (concentrations of compound producing 50% leukotriene biosynthesis inhibition) are calculated by linear regression analysis of percentage inhibition versus log compound concentration plots.

SMILES	IC50 [3] [µM]	other results
CCC(CC)N(O)C(=O)Nc1ccc(Cc2ccc(NC(=O)N(O)C(CC)CC)cc2)cc1 [Example 12, 4,4'-Methylenebis(1-hydroxy-1-(1-ethylpropyl)-3-phenylurea)]		inhibition at 0.1 µM ([1]; 0.1 μM): 83%; inhibition at 1 µM ([1]; 1.0 μM): 93%; inhibition at 10 µM ([1]; 10.0 μM): 100%; inhibition in vivo at 50 mg/kg [2]: 15%
CCC(CC)N(O)C(=O)NC(C)(C)c1cccc(C(C)(C)NC(=O)N(O)C(CC)CC)c1 [Example 13, 1,1'-(m-Phenylene)bis(1-methyl-1-(3-hydroxy-3-(1-ethylpropyl)ureido)ethane)]	65	
CCC(CC)N(O)C(=O)Nc1ccc(Oc2ccc(NC(=O)N(O)C(CC)CC)cc2)cc1 [Example 14, 4,4'-Oxybis(1-hydroxy-1-(1-ethylpropyl)-3-phenylurea)]	0.1	
CCC(CC)N(O)C(=O)Nc1ccc(NC(=O)N(O)C(CC)CC)cc1 [Example 15, 1,1'-(p-Phenylene)bis(3-hydroxy-3-(1-ethylpropyl)urea)]	2.1	
CCC(CC)N(O)C(=O)Nc1ccc(C)c(NC(=O)N(O)C(CC)CC)c1 [Example 16, 1,1'-(4-Methyl-m-phenylene)bis(3-hydroxy-3-(1-ethylpropyl)urea)]	58.6	
CCC(CC)N(O)C(=O)NCCCC(C)CNC(=O)N(O)C(CC)CC (centres unmarked) [Example 17, 1,1'-(2-Methylpentamethylene)bis(3-hydroxy-3-(1-ethylpropyl)urea)]	12	
CCC(CC)N(O)C(=O)NCCCCCCCCNC(=O)N(O)C(CC)CC [Example 18, 1,1'-Octamethylenebis(3-hydroxy-3-(1-ethylpropyl)urea)]	0.33	
CCC(CC)N(O)C(=O)Nc1ccc(Cc2ccc(NC(=O)N(O)C(CC)CC)c(Cl)c2)cc1Cl [Example 19, 4,4'-Methylenebis(1-hydroxy-1-(1-ethylpropyl)-3-(2-chlorophenyl)urea)]	0.11	
